Experimental data: US10421781B2, “Antimicrobial peptide and use thereof” (NOVACELL TECHNOLOGY INC., priority 2015, dated 2019)

Tests used:
FPR2 = target: T1, FPR2 (Homo sapiens, UniProt P25090); assay: intracellular calcium ions (Fura-2/AM) in RBL cells overexpressing FPR2; assay type: cell-based
T1 construct: expressed in transfected cells; host or cells: RBL cells overexpressing FPR2 (FPR2-RBL)
T1 sequence (P25090 1-351): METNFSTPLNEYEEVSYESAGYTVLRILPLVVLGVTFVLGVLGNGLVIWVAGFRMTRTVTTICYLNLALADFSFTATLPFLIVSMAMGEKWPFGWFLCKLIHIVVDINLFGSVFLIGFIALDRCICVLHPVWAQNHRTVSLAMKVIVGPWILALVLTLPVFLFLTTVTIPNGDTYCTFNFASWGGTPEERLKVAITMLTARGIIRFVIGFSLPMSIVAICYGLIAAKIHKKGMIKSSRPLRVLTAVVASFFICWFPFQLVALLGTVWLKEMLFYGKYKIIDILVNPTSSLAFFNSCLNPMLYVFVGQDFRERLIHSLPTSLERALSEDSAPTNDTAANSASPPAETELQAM
Source text: To examine whether the peptide according to an embodiment of the present invention activates the in vivo immunological function of a living organism, the present inventors observed the changes in calcium ion permeability. Specifically, they measured the concentration of intracellular calcium ions to examine whether the peptide activates FPR2. To this end, the present inventors used RBL cells in which FPR2 was not expressed, RBL cells in which FPR1 was overexpressed (FPR1-RBL), and RBL cells in which FPR2 was overexpressed, and used Fura-2/AM, a staining material having a strong binding affinity for calcium, as a method for sensitive measurement of the release of intracellular calcium ions. […] Approximately 2×10^6 cells were taken each time and harvested by rapid centrifugation, and resuspended in 1 mL of Locke solution in which EGTA was added but no calcium ions were added, and the absorbance ratios at two wavelengths of 340 nm and 380 nm were monitored on a spectrophotometer. After treating with the peptide of the present invention at different concentrations (1 μM, 0.1 μM, and 0.01 μM) at intervals of about 1 minute, the difference in absorbance at two wavelengths of 340 nm and 380 nm was examined and this was later converted to the concentration of calcium ions freed into the cells according to the method of Grynkiewicz.

[1] = tested on: atopic dermatitis induced by capsaicin (Neo-Cap); assay: Neo-Cap model of atopic dermatitis induced by capsaicin; assay type: in vivo, Sprague Dawley rats; conditions: 10 μM applied daily on back and ears
Description: As such, to confirm whether the peptide according to an embodiment of the present invention can actually treat immune-related diseases by activating immunological functions in vivo, the present inventors examined whether the symptoms of atopic dermatitis can be ameliorated by treating the peptide on the animal model of atopic dermatitis. […]
In Neo-Cap model, the dermatitis score was measured two weeks after the injection of capsaicin, and the control group (PBS) and NCP112 were applied daily on the back (200 μL) and both ears (50 μL) at a concentration of 10 μM, and the dermatitis score was measured at one-week intervals for three weeks. The dermatitis score was measured on the face, ears, back (total) and ears, and back (application site) according to skin conditions, and the score was standardized by setting the score at the second week (i.e., the starting point) at 1, as shown in FIG. 4.
The mice analyzed in Experimental Example 3-1 were treated with the peptide according to an embodiment of the present invention, and after five weeks, the mice were sacrificed. […]

[2] = tested on: atopic dermatitis induced by capsaicin (2 W Cap); assay: 2 W Cap model of atopic dermatitis induced by capsaicin; assay type: in vivo, Sprague Dawley rats; conditions: 10 μM applied daily on back and ears
Source text: As such, to confirm whether the peptide according to an embodiment of the present invention can actually treat immune-related diseases by activating immunological functions in vivo, the present inventors examined whether the symptoms of atopic dermatitis can be ameliorated by treating the peptide on the animal model of atopic dermatitis. Specifically, to confirm whether the peptide has the effect of ameliorating dermatitis in a model of atopic dermatitis induced by capsaicin, the present inventors observed the degree of skin improvement after treating the peptide (NCP112) according to an embodiment of the present invention on the animals with atopy (Neo-Cap and 2 W Cap) in the dermis of atopy-induced skin tissue, the applied site in the dermis, and the site with scratches. Neo-Cap, which is a representative model of atopic dermatitis, was subcutaneously injected with capsaicin (50 mg/kg) on the back skin of neonatal rats (Sprague Dawley rats) of less than 48 hours to induce atopic dermatitis. 2 W Cap, which is a model mimicking of atopic dermatitis developed in adolescent period or adults, was subcutaneously injected twice with capsaicin (25 mg/kg) of 2-week-old rats (Sprague Dawley) to induce atopic dermatitis.
In 2 W-Cap model, the dermatitis score was measured one week after the capsaicin injection, and the control group (PBS) and NCP112 were applied daily on the back (200 μL) and both ears (50 μL) at a concentration of 10 μM, and the dermatitis score was measured at one-week intervals for two weeks, in the same manner as in Neo-Cap model.
The mice analyzed in Experimental Example 3-1 were treated with the peptide according to an embodiment of the present invention, and after five weeks, the mice were sacrificed. The skin tissue at the site where dermatitis was induced by capsaicin treatment was removed in a size of about 3 cm×3 cm and the tissue was fixed in a 4% paraformaldehyde solution for two to three days. […]

[3] = antibacterial activity of N-terminally lipid-modified peptides; assay type: cell-based; conditions: compared with peptides carrying other lipid groups (palmitoyl etc.) at the N-terminus
Source text: In order to further improve the antibacterial activity of the peptides that underwent the basic screening in Example 1, the present inventors have examined the antibacterial activity of these peptides by synthesizing modified peptides in which various lipid components, such as a palmitoyl group, an octanoyl group, etc., were attached to the N-terminus of these peptides.

E. coli = assay: antibacterial test in nutrient broth (absorbance at 600 nm); assay type: cell-based, Escherichia coli
Description: (§1) In order to further improve the antibacterial activity of the peptides prepared in Example 2, an antibacterial test was performed. Gram-positive bacteria Staphylococcus epidermidis and Staphylococcus aureus) and gram-negative bacteria (Pseudomonas aeruginosa and E. coli) were prepared, streaked on agar plate medium using a four-quadrant sequential streak technique, and cultured in a 36° C. incubator overnight. On the next day, the strain colonies on the agar plate medium were inoculated into nutrient broth (3 mL) and cultured overnight at 36° C. and 220 rpm in a shaking incubator. On the next day, the bacteria culture was diluted and the absorbance at 600 nm was measured and adjusted to 0.5. Then, the bacteria culture was diluted in nutrient broth in a 1:100 ratio. Then, the peptides prepared in Example 2 were sequentially diluted in nutrient broth at concentrations of 0 μM, 1.25 μM, 2.5 μM, 5 μM, 10 μM, and 20 μM in an amount of 1 mL, respectively, and 1 mL of the diluted bacteria was inoculated, and cultured overnight at 36° C. and 220 rpm in a shaking incubator for 18 hours. Then, the absorbance was measured at 600 nm and the results were analyzed.

[4] = tested on: Staphylococcus epidermidis; assay: as above; assay type: cell-based
Description: as §1

Staphylococcus aureus = assay: as above; assay type: cell-based
Description: as §1

Pseudomonas aeruginosa = assay: as above; assay type: cell-based
Description: as §1

[5] = versus control (PBS), week 5, FIG. 6
[6] = 10 μM peptide, 18 hours, 36° C., absorbance 600 nm

With Oct-KFKWRYm [NCP112] the “amount of intracellular concentration increase of calcium ions” value (FPR2; 1 μM, 0.1 μM and 0.01 μM peptide, FPR2-RBL cells, FIG. 2B) was “concentration-dependent feature”, the intracellular calcium ions (FPR2; FPR2-RBL versus RBL and FPR1-RBL cells, FIG. 2A) was “rapidly increased specifically in FPR2-RBL cells” and the “symptom of atopic dermatitis” value [1] was “effect of ameliorating the symptom of atopic dermatitis”. For the same substance, the “epidermal layer (thickness, H&E stained skin tissue)” value [1, 5] was “slight decrease”, the skin conditions [2] was “comparable to that of the normal conditions” and the “symptom of atopic dermatitis” value [2] was “effect of ameliorating the symptom of atopic dermatitis”. For the same substance, the “epidermal layer (thickness, H&E stained skin tissue)” value [2, 5] was “significant decrease”, the “antibacterial activity among modified peptides” value [3] was “highest activity” and the antibacterial activity (E. coli; 0 to 20 μM peptide, FIG. 1) was “concentration-dependent manner”. The growth of bacteria (E. coli; [6]) was “completely inhibited the growth”, the antibacterial activity ([4]; 0 to 20 μM peptide, FIG. 1) was “concentration-dependent manner” and the growth of bacteria [4, 6] was “completely inhibited the growth”. For the same substance, the antibacterial activity (Staphylococcus aureus; 0 to 20 μM peptide, FIG. 1) was “concentration-dependent manner”, the growth of bacteria (Staphylococcus aureus; [6]) was “completely inhibited the growth” and the antibacterial activity (Pseudomonas aeruginosa; 0 to 20 μM peptide, FIG. 1) was “concentration-dependent manner”. For the same substance, the growth of bacteria (Pseudomonas aeruginosa; [6]) was “completely inhibited the growth” and the “antibacterial effect compared among the 4 kinds of bacteria” value (Pseudomonas aeruginosa; FIG. 1) was “highest antibacterial effect”.
